According to PubChem BioAssay (NCI):
Values joined by “and” are separate entries in the source; they are usually repeats but may differ in a detail not shown here. Equal entries are not always repeated.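 Method: 48-hour compound exposure of cells in 96-well plates, five concentrations, linear interpolation of endpoints. GI50 = concentration required for 50% inhibition of growth. TGI: concentration producing complete growth inhibition.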

Legend:
Test in all cases: NCI tumour cell line growth inhibition, 48 h
[1] = tested on: XF 498 CNS
[2] = tested on: KM20L2 colon
[3] = tested on: DMS 273 small cell lung
[4] = tested on: SNB-78 CNS
[5] = tested on: RXF-631 renal
[6] = tested on: DLD-1 colon
[7] = tested on: HOP-18 NSCLC
[8] = tested on: DMS 114 small cell lung
[9] = tested on: MDA-N
[10] = tested on: SN12K1 renal
[11] = tested on: P388/ADR leukemia
[12] = tested on: P388 leukemia

Row | Compound | TGI [1] | TGI [2] | TGI [3] | TGI [4] | TGI [5] | TGI [6] | TGI [7] | TGI [8] | also measured
1 | COC(=O)CCC(=O)C(C#N)c1ccc(Cl)cc1Cl (stereo unspecified) | > 100 µM | > 100 µM | > 100 µM | > 100 µM | > 100 µM | > 100 µM | – | – | –
2 | CCCN1CN(C(C(=O)N[C@@H]2C(=O)N3C(C(=O)O)=C(C)CSC23)c2ccccc2)CSC1=S (stereo partly specified) | – | > 100 µM | > 100 µM | > 100 µM | – | > 100 µM | > 100 µM | – | –
3 | O=c1[nH]c(C2CCCCC2)nc2cc(Cl)ccc12 | – | > 100 µM | > 100 µM | > 100 µM | – | – | – | > 100 µM | –
4 | COC(=O)[C@]1(C)CCC[C@]2(C)C3CC4OOC3(C=C4C(C)C)CCC21 (stereo partly specified) | – | 32 µM | 34.5 µM | 32.3 µM | – | 29.1 µM | – | 28 µM | –
5 | C/C(CC(=O)Nc1ccc([N+](=O)[O-])cc1)=N/N=C(N)N | > 100 µM | > 100 µM | > 100 µM | > 100 µM | > 100 µM | > 100 µM | – | > 100 µM | –
6 | Cn1c(-c2ccccc2)c/c(=N\NS(C)(=O)=O)c2cc(S(=O)(=O)O)ccc21 | > 100 µM | > 100 µM | > 100 µM | > 100 µM | – | > 100 µM | > 100 µM | > 100 µM | –
7 | Cc1cc(NC(=O)C(=O)Cc2nc3ccccc3s2)ccc1Cl | > 100 µM | > 100 µM | > 100 µM | > 100 µM | – | > 100 µM | > 100 µM | > 100 µM | TGI [9]: > 100 µM
8 | [O-][N+]1=C(c2ccccc2)COc2ccccc21 | – | > 100 µM | > 100 µM | > 100 µM | > 100 µM | > 100 µM | > 100 µM | > 100 µM | –
9 | O=C(CCc1cc(-c2ccco2)n(-c2ccc([N+](=O)[O-])cc2[N+](=O)[O-])n1)Nc1ccccc1 | > 100 µM | > 100 µM | > 100 µM | > 100 µM | > 100 µM | > 100 µM | – | > 100 µM | –
10 | O=C1/C(=c2\c3ccccc3n3c(=O)c4ccccc4nc23)Nc2ccccc21 | – | – | – | – | – | – | – | – | TGI [9]: 33.6 µM
11 | COC(=O)C12OCC34C(CC5C(C)=CC(=O)C(O)C5(C)C3C(O)C1O)OC(=O)C(OC(=O)CC(C)C)C24 (stereo unspecified) | – | – | – | – | – | – | 0.0463 µM and 0.274 µM and 0.219 µM | – | TGI [9]: 0.00503 µM; GI50 [1]: 41 nM and 50 nM; GI50 [10]: 0.382 nM; TGI [10]: 2.72 nM; GI50 [2]: 47.9 nM and 50 nM; GI50 [11]: 65.7 nM; GI50 [7]: 9.07 nM and 44.1 nM and 50 nM; GI50 [4]: 74.8 nM and 50 nM; GI50 [8]: 133 nM; GI50 [12]: 50 nM; GI50 [6]: 63.3 nM and 50 nM
12 | COC(=O)C1CCc2nnc(-c3cccnc3)n21 (stereo unspecified) | – | > 100 µM | > 100 µM | > 100 µM | > 100 µM | > 100 µM | > 100 µM | > 100 µM | –
13 | COC(=O)/C(Cl)=C1/CC1COCc1ccccc1 (stereo unspecified) | 58.4 µM | > 100 µM | 54.9 µM | > 100 µM | – | 45.8 µM | – | 81.2 µM | –
14 | CC(C)(C)C1CCN(C(=O)c2ccccc2)CC1 | – | > 100 µM | > 100 µM | > 100 µM | – | > 100 µM | > 100 µM | 98.8 µM | –
15 | COC1=CC(=O)C2[C@H]3Cc4ccccc4[C@H]3C2(C)C1=O (stereo partly specified) | > 100 µM | > 100 µM | > 100 µM | > 100 µM | > 100 µM | > 100 µM | – | – | –
16 | Cn1c2ccccc2c(=S)c2cc(NC(=O)CCCCC(=O)Nc3ccc4c(c3)c(=S)c3ccccc3n4C)ccc21 | – | – | – | – | – | – | – | – | TGI [9]: > 100 µM
17 | N=C1N=Nc2nc(C3(c4nc5n(c4O)C(=N)N=N5)Cc4ccccc4C3=O)c(O)n21 (stereo unspecified) | – | – | – | – | – | – | – | – | TGI [9]: > 100 µM
